These results are taken from PubChem BioAssay AID602350 (Broad Institute, 2012).

For this assay, the target named is Protein disulfide-isomerase (Homo sapiens) (UniProt P07237). Nature of the assay: PDI inhibitors, insulin aggregation turbidity, dose response, biochemical, absorbance, cherry-picked samples (AID 602350).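 Note: potency is for inhibitors that reduce insulin aggregation absorbance.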 The conditions noted are these: recombinant PDI insulin aggregation, absorbance 650 nm, 90 min.

A word on the AC50: it is the midpoint of the concentration-response curve, whichever way the signal moves.

Protein disulfide-isomerase (Homo sapiens), sequence (P07237 whole entry, looked up): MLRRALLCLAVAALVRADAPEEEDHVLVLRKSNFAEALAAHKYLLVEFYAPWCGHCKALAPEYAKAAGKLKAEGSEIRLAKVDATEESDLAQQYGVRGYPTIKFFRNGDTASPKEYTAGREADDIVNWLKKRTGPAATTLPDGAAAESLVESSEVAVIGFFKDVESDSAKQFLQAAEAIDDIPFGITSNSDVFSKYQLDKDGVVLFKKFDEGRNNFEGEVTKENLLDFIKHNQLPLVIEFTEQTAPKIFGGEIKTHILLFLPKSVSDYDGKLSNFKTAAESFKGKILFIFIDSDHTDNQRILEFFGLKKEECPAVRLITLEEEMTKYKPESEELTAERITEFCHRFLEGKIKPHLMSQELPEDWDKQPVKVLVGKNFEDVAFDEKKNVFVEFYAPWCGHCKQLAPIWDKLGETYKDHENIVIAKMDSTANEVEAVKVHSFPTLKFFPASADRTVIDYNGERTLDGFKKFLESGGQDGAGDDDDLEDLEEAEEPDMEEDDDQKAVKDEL

As for `Cc1noc(C)c1S(=O)(=O)Nc1ccc2c(c1)CC(=O)N([C@@H](C)CO)C[C@@H](C)[C@H](CN(C)S(=O)(=O)c1ccc(F)cc1)O2`, the AC50 was 19.5 µM.
